The structures appear in SMILES notation.

In one experiment the target is T1, CDK2/Cyclin A2 (Homo sapiens, UniProt P24941).
T1 construct: purchased ProQinase; host or cells: insect cell
The experiment in a line: CDK2/CyclinA2 Enzymatic Activity Assay (TR-FRET). The class given is biochemical. Conditions: ATP 1 mM, recombinant CDK2/Cyclin A2 1 nM, read-out: CDK2_A2 IC50. The protocol: CDK2/CyclinA2 Enzymatic Activity Assay
(§1) The inhibitory activity of compounds was evaluated in vitro using TR-FRET assay with white 384-well low volume microplate (Greiner Bio-One). CDK2/Cyclin A2 catalyzed phosphorylation of peptides in the presence and absence of compounds was measured and used in IC50 determination. Recombinant protein complex CDK2/Cyclin A2, expressed from insect cell, was purchased from ProQinase. Testing compounds were dissolved in DMSO at 1 mM and tested in 9-dose IC50 mode. The reaction mixture was prepared by mixing CDK2/CyclinA2 (1 nM final), ULight-4E-BP1 (50 nM final, Perkinelmer, TRF0128-D), and ATP (1 mM final) in assay buffer (20 mM of HEPES pH 7.4, 1 mM of EGTA, 0.05% BSA, 0.005% Tween 20, and 1 mM TCEP). The compound of interest in DMSO was added to each well in 3-fold serial dilution by the dispenser (TECAN D300E) to make a 9.9 μL of the reaction mixture. After 20 minutes preincubation at room temperature, 0.1 μL MgCl2 (10 mM final) was added to initiate the reaction. Following a 45 minutes incubation at 37° C., the reaction was stopped by addition of 2 μL of quenching buffer consisting of Lance detection buffer (Perkinelmer CR97-100C), LANCE Ultra Europium-anti-P-4E-BP1 (Perkinelmer, TRF0216-D), EDTA, and incubate at room temperature for additional 60 minutes in the dark. The reaction signal was measured by Envision multimode plate reader (PerkinElmer, 2102-0010). IC50 values were determined by fitting the data to the standard 4 parameters with Hill Slope using GraphPad Prism software.
For orientation: In TR-FRET formats the signal depends on donor and acceptor labels being close together.

The target of a further experiment is T2, CDK4/Cyclin D1 (Homo sapiens, UniProt P11802).
T2 construct: purchased ProQinase; host or cells: insect cell
In words: CDK4/CyclinD1 Enzymatic Activity Assay (TR-FRET). The class given is biochemical. The settings on record: ATP 2 mM, recombinant CDK4/Cyclin D1 1 nM, read-out: CDK4_D1 IC50. The protocol:
CDK4/CyclinD1 Enzymatic Activity Assay
The inhibitory activity of compounds was evaluated in vitro using TR-FRET assay with white 384-well low volume microplate (Greiner Bio-One). CDK4/Cyclin D1 catalyzed phosphorylation of peptides in the presence and absence of compounds was measured and used in IC50 determination. Recombinant protein complex CDK4/Cyclin D1, expressed from insect cell, was purchased from ProQinase. Testing compounds were dissolved in DMSO at 1 mM and tested in 9-dose IC50 mode. The reaction mixture was prepared by mixing CDK4/CyclinD1 (1 nM final), ULight-4E-BP1 (100 nM final, Perkinelmer, TRF0128-D), and ATP (2 mM final) in assay buffer (20 mM of HEPES pH 7.4, 1 mM of EGTA, 0.05% BSA, 0.005% Tween 20, and 1 mM TCEP). The compound of interest in DMSO was added to each well in 3-fold serial dilution by the dispenser (TECAN D300E) to make a 9.9 μL of the reaction mixture. After 20 minutes of preincubation at room temperature, 0.1 μL MgCl2 (10 mM final) was added to initiate the reaction. Following a 45 minutes incubation at 37° C., the reaction was stopped by the addition of 2 μL of quenching buffer consisting of Lance detection buffer (Perkinelmer CR97-100C), LANCE Ultra Europium-anti-P-4E-BP1 (Perkinelmer, TRF0216-D), EDTA, and incubate at room temperature for additional 60 minutes in the dark. The reaction signal was measured by Envision multimode plate reader (PerkinElmer, 2102-0010). IC50 values were determined by fitting the data to the standard 4 parameters with Hill Slope using GraphPad Prism software.

The next experiment concerns H929 cells. The experiment in a line: CellTiter-Glo Protocol (Proliferation). In kind it is cell-based. The settings on record: Homo sapiens, NCI-H929, 24 hours, read-out: PROLIFERATION_CTG_H929 IC50. The protocol: CellTiter-Glo® Protocol (Proliferation)
Dispense 10 μL aliquot of prepared H929 cells (1:1 ratio of cells: Trypan Blue (#1450013, Bio-Rad)) onto cell counting slide (#145-0011, Bio-Rad) and obtain cell density and cell viability using a cell counter (TC20, Bio-Rad). Remove appropriate volume of resuspended cells from culture flask to accommodate 4000 cells/well at 10 μL/well. Transfer H929 cells to 50 mL conical (#430290, Corning). Spin down at 1000 rpm for 5 min. using a tabletop centrifuge (SPINCHRON 15, Beckman). Discard supernatant and resuspend cell pellet in modified RPMI 1640 (#10-040-CV, Corning) cell culture media containing 10% FBS (F2422-500ML, Sigma), sodium pyruvate (100 mM) (#25-000-CL, Corning), HEPES buffer (1M) (#25-060-CL, Corning) and glucose (200 g/L) (A24940-01, Gibco) to a cell density of 400,000 cells/mL. Dispense 10 μL of resuspended H929 cells per well in 384-well small volume TC treated plate (#784080, Greiner Bio-one) using standard cassette (#50950372, Thermo Scientific) on Multidrop Combi (#5840310, Thermo Scientific) in laminar flow cabinet. Dispense compounds onto plates using a digital liquid dispenser (D300E, Tecan). Incubate plates in humidified tissue culture incubator at 37° C. for 24 hours. Add 10 μL of prepared CellTiTer-Glo® detection buffer (G7570, Promega) to each well of 384-well plate using small tube cassette (#24073295, Thermo Scientific) on Combi multi-drop, incubate at RT for 30-60 min. Read plates with a microplate reader (PheraStar, BMG Labtech) using 384 well luminescence mode. See Table B (Proliferation_CTG_H929).
(In ATP-based viability assays light output follows the ATP content of the culture.)

In another experiment the target is T3, CDK9/Cyclin T1 (Homo sapiens, UniProt P50750).
T3 construct: purchased ProQinase; host or cells: insect cell
The experiment in a line: CDK9/CyclinT1 Enzymatic Activity Assay (TR-FRET). Conditions: ATP 1 mM, recombinant CDK9/Cyclin T1 1 nM, read-out: CDK9_T1 IC50. In kind it is biochemical. The protocol:
CDK9/CyclinT1 Enzymatic Activity Assay
as §1, with “(Greiner Bio-One). CDK9/Cyclin T1 catalyzed phosphorylation” for “(Greiner Bio-One). CDK2/Cyclin A2 catalyzed phosphorylation”, “protein complex CDK9/Cyclin T1, expressed from” for “protein complex CDK2/Cyclin A2, expressed from”, “by mixing CDK9/CyclinT1 (1 nM” for “by mixing CDK2/CyclinA2 (1 nM”, “20 minutes of preincubation at” for “20 minutes preincubation at”, “stopped by the addition of” for “stopped by addition of”

T2 sequence (P11802 whole entry): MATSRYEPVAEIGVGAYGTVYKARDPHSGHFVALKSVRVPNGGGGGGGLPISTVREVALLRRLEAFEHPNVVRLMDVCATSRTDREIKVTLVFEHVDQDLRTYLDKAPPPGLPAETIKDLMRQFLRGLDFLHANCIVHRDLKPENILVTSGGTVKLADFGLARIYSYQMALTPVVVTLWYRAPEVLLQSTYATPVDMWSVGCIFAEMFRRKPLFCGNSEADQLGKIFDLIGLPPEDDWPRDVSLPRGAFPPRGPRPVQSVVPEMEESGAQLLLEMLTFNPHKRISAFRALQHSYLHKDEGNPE
T2 sequence (P24385 whole entry partner): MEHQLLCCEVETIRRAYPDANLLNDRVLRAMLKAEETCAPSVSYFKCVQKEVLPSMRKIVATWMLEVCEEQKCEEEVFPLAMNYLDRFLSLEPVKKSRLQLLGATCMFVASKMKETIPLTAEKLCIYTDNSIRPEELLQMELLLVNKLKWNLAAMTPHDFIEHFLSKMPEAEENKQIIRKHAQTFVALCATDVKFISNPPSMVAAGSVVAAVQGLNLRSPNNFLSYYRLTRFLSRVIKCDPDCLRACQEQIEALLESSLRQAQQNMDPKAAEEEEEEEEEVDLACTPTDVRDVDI
T3 sequence (P50750 whole entry): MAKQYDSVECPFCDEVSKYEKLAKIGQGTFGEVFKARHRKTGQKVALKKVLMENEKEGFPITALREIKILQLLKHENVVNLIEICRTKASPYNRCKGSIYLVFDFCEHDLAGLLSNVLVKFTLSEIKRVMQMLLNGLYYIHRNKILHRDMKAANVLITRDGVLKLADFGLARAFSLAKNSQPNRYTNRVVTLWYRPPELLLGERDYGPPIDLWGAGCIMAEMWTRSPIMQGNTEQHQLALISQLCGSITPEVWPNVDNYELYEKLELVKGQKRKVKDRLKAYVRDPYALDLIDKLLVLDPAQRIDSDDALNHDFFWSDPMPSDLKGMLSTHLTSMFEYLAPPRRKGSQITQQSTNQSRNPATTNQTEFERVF
T3 sequence (O60563 whole entry partner): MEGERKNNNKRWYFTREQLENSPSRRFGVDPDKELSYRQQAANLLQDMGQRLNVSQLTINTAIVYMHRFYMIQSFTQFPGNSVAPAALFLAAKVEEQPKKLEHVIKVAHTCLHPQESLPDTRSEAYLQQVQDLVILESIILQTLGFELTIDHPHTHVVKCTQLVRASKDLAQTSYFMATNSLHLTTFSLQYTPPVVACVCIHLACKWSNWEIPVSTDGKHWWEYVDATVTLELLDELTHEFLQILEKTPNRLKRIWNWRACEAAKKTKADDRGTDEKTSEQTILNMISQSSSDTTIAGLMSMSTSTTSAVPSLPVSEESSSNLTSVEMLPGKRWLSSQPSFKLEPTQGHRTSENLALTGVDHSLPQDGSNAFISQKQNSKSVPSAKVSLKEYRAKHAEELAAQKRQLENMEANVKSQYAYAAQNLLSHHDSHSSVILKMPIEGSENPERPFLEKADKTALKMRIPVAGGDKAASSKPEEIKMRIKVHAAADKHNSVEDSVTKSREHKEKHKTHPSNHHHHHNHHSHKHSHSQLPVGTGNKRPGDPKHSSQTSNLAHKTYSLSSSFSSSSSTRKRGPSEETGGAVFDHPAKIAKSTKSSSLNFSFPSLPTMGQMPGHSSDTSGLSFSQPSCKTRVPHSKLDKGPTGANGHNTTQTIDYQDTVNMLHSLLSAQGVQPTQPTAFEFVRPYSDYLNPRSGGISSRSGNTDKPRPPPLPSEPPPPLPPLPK

As for `CC(=O)N[C@@H]1CCC[C@H](C(=O)Nc2cc(-c3cccc4c3CC(C)(C)N4)c(Cl)cn2)C1` [Example 5, (1S,3R)-3-acetamido-N-(5-chloro-4-(2,2-dimethylindolin-4-yl)pyridin-2-yl)cyclohexane-1-carboxamide], the IC50 is above 1000 nM on CDK2/Cyclin A2, 20 to 200 nM on CDK4/Cyclin D1, 20 to 200 nM in the experiment with H929 cells and below 20 nM at CDK9/Cyclin T1.

For `Cc1cnc(NC(=O)[C@H]2CCC[C@@H](NC(=O)CC#N)C2)cc1-c1cccc2c1OCCN2` [Example 8, (1S,3R)-3-(2-cyanoacetamido)-N-(4-(3,4-dihydro-2H-benzo[b][1,4]oxazin-8-yl)-5-methylpyridin-2-yl)cyclohexane-1-carboxamide], the IC50 is above 1000 nM at CDK2/Cyclin A2, above 1000 nM on CDK4/Cyclin D1, 200 to 1000 nM with H929 cells and 20 to 200 nM at CDK9/Cyclin T1.

Turning to `Cc1cnc(NC(=O)[C@H]2CCC[C@@H](NC(=O)CC#N)C2)cc1-c1cccc2c1OCC(C)(C)N2` [Example 7, (1S,3R)-3-(2-cyanoacetamido)-N-(4-(3,3-dimethyl-3,4-dihydro-2H-benzo[b][1,4]oxazin-8-yl)-5-methylpyridin-2-yl)cyclohexane-1-carboxamide], the IC50 on CDK2/Cyclin A2 is above 1000 nM; at CDK4/Cyclin D1, above 1000 nM; with H929 cells it was 200 to 1000 nM; on CDK9/Cyclin T1, 20 to 200 nM.

For the origin of these results see patent publication US20230265083A1, “Heterocycle CDK Inhibitors And Their Use Thereof” (Prelude Therapeutics Incorporated, priority 2020, published 2023).
